Assay results from US20240383910A1, “SMALL MOLECULE BTK DEGRADERS AND METHODS OF USE THEREOF” (Baylor College of Medicine, priority 2023, published 2024).

Experiments:
[1] = Mouse S9 metabolic stability assay; format: in vitro ADME; details: co-incubated with mouse liver S9 enzymes, LC-MS; read-out: t1/2 in mouse liver S9
Description: To verify the metabolic stability of PS-2, PS-2 was co-incubated with mouse liver S9 enzymes and LC-MS was used to test the remaining amount of PS-2 compound. DD-03-171 was used as a control (FIG. 11).

[2] = system: Mino cells; assay: TMT-based quantitative proteomics in Mino cells, degradation specificity over the proteome; format: cell-based; details: 200 nM, 4 h, >2,500 proteins
Description: (§1) Panel a. […] Panel b. […] Panel c. […] Panel d-e. […] Panel g.
(§2) Two million of Mino cells were treated with DMSO or 200 nM of PS-2 for 4 hours in biological triplicates and cells were harvested by centrifugation (200×g, 4° C., 5 min). Lysis buffer (100 mM Triethylammonium bicarbonate (TEAB, Thermo Fisher Scientific, Cat. No. 90114), 2% SDS) was added to the cell pellets and homogenized with a microtip sonicator (Branson) to achieve a cell lysate with a protein concentration of ˜2 mg mL^−1. Protein concentration was determined using BCA assay (Pierce, Cat. No. 23225) and normalized to 1 mg mL^−1. One hundred μg of protein for each sample were reduced and alkylated with 10 mM Tris(2-carboxyethyl) phosphine hydrochloride (TCEP, Sigma, Cat. No. C4706) and 17 mM iodoacetamide (IAA, Sigma, Cat. No. 16125-5G), followed by digestion with trypsin (1:20, enzyme: protein, Thermo Fisher Scientific, Cat. No. 90058) for 16 h shaking at 37° C. […]
(§3) Next, tandem mass tagging (TMT)-based quantitative proteomic profiling was performed to evaluate the degradation specificity of PS-2. […] Quantitative proteomics employing TMT chemical labeling coupled with LC/MS/MS enabled the detection of >2,500 unique proteins without fractionation (FIG. 4f). […]

[3] = molecular target: T1, CSK (Homo sapiens, UniProt P41240); assay: TMT-based quantitative proteomics in Mino cells, CSK; format: cell-based; details: 200 nM, 4 h
T1 construct: host or cells: Mino
T1 sequence (P41240 whole entry): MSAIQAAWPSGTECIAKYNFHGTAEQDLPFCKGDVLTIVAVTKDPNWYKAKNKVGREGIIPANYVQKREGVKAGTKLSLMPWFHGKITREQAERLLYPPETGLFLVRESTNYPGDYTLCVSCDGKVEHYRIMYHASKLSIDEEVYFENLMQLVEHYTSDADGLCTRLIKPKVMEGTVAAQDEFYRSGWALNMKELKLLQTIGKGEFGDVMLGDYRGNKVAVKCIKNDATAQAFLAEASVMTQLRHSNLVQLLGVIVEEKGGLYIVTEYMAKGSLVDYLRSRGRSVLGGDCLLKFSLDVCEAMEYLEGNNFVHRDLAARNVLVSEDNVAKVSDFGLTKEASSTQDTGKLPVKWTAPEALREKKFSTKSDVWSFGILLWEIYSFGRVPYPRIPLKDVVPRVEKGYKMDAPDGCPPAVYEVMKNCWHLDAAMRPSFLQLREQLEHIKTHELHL
Description: as §1, §2, §3

[4] = molecular target: T2, IKZF1 (Homo sapiens, UniProt Q13422+Q96SW2); assay: TMT-based quantitative proteomics in Mino cells, IKZF1; format: cell-based; details: 200 nM, 4 h
T2 construct: host or cells: Mino
T2 sequence (Q13422 whole entry): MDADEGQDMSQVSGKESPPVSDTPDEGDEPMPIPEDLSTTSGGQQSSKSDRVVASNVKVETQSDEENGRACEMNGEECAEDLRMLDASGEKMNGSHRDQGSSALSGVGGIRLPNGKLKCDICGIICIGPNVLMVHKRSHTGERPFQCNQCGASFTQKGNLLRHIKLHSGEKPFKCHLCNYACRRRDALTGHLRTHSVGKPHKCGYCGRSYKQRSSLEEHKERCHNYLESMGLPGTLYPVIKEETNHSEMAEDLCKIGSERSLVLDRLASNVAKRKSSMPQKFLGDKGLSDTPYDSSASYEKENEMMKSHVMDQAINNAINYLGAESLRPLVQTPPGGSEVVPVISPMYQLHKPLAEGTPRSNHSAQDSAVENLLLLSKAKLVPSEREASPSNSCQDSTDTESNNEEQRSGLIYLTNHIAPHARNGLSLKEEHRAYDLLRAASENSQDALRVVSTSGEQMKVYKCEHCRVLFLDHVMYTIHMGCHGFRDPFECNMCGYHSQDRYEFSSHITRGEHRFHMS
T2 sequence (Q96SW2 whole entry): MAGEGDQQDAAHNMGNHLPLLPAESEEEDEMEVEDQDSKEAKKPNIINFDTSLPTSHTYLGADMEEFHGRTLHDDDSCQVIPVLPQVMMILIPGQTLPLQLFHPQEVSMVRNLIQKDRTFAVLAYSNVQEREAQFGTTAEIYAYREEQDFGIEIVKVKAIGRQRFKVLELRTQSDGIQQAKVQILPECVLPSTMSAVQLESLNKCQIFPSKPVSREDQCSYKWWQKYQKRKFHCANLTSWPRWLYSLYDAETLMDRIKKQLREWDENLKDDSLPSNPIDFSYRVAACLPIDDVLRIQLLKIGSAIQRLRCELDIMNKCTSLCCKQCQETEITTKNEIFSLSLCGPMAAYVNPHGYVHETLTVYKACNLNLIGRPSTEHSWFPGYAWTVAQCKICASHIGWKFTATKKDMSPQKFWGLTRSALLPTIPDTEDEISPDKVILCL
T2 sequence (Q16531 whole entry partner): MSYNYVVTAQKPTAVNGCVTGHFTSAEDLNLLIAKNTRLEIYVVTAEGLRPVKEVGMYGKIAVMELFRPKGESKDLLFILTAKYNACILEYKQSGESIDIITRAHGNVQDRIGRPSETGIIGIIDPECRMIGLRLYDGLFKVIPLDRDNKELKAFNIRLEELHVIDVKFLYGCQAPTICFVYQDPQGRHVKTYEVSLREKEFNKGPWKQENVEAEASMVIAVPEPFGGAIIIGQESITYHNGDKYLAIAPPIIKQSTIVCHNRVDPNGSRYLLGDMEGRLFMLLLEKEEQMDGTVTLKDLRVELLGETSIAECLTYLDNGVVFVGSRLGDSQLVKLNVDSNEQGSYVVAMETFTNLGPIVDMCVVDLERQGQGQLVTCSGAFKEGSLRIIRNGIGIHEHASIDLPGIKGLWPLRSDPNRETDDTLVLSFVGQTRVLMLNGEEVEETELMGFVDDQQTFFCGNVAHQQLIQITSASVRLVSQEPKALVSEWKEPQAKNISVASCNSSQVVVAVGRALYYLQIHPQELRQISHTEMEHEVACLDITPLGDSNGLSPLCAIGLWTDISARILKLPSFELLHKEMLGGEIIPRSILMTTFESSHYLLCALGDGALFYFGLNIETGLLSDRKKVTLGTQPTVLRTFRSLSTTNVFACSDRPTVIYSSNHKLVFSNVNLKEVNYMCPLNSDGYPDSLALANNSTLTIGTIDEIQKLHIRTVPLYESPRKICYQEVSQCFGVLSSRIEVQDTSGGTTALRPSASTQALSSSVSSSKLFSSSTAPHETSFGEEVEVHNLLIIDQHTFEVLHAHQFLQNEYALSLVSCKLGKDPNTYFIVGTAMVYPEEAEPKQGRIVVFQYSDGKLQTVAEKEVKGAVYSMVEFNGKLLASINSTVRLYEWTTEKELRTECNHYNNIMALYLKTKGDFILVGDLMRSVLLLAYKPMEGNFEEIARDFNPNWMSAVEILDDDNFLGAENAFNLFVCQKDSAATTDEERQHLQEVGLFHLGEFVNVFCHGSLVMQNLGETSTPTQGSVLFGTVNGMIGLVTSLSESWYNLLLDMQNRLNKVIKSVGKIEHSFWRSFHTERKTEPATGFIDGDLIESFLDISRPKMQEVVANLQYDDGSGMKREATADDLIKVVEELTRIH
Description: as §1, §2, §3

[5] = molecular target: BTK (Homo sapiens, UniProt Q06187); assay: Western blotting for BTK in Mino cells; format: cell-based; parameters: host or cells: Mino; details: up to 1000 nM, 24 h, Western blot
Sequence of BTK (Q06187 whole entry): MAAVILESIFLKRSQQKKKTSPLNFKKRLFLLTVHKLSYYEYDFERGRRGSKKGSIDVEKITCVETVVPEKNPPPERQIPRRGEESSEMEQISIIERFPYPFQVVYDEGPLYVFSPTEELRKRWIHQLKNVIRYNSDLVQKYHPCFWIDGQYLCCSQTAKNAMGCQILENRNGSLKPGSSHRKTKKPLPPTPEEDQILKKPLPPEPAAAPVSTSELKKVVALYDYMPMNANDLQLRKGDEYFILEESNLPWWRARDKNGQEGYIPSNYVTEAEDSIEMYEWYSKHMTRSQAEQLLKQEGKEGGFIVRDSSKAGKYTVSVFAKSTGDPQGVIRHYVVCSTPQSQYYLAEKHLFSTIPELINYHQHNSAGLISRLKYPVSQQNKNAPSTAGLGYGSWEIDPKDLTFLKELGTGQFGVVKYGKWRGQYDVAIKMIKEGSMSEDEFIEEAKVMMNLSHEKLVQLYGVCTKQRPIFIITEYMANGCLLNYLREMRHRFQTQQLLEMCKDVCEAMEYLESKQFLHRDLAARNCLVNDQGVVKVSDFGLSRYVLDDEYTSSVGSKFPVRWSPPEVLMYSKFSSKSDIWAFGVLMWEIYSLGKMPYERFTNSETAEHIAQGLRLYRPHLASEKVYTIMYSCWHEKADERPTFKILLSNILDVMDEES
Description: Mino cells were seeded into the wells of six-well plates at the density of 5×10^5 cells per mL in 2 mL of complete RPMI-1640 culture medium. After overnight adaptation, cells were treated with serially diluted compounds (from 1,000-1.6 nM, 5-fold dilution) for 24 hours. After treatment, whole cell lysates for immunoblotting were prepared by pelleting Mino cells at 4° C. and 200×g for 5 minutes. The resulting cell pellets were washed once with ice-cold PBS and lysed in 1×RIPA lysis buffer (Alfa Aesar, Cat. No. J62524) supplemented with protease and phosphatase inhibitor cocktail (Thermo Fisher, Cat. No. 78430). Lysates were centrifuged at 15,000×g for 10 min at 4° C. and protein concentrations were assessed using BCA assay (Pierce, Cat. No. 23225). Same amounts of protein (30 μg) for each sample were loaded onto sodium dodecyl sulfate-polyacrylamide gel, separated by electrophoresis (Bio-Rad) at 120 V for 1.5 h and transferred to PVDF membrane using a Transblot Turbo system (Bio-Rad). After blocking for 1 h at room temperature in 1% BSA-TBST, the membranes were immunoblotted with the specified primary antibodies at the dilution of 1:1000 in TBST (Cell Signaling Technology: anti-BTK Cat. No. 8547, anti-IKZF1 Cat. No. 14859, anti-IKZF3 Cat. No. 15103, anti-β-actin Cat. No. 4570, Proteintech: anti-GSPT1, Cat. No. 10763-1-AP) overnight at 4° C. and the HRP-conjugated secondary antibodies (Cell Signaling, Cat. No. 7074, 1:1000 in TBST) for 1 h at room temperature. Imaging was performed using the ECL Prime chemiluminescent Western blot detection reagents (Kindle Biosciences, Cat. No. R1100) by visualization of the blots with an Imager (Kindle Biosciences, Cat. No. D1001). All Western blots were subsequently processed and quantified with Imager software ImageJ and protein level was normalized to the B-actin loading controls.

[6] = molecular target: T2, IKZF1; assay: Western blotting for IKZF1 in Mino cells; format: cell-based; details: 24 h, Western blot, read-out: IKZF1-WB Endpoint DC50
Description: as §1
After treatment, whole cell lysates for immunoblotting were prepared by pelleting Mino cells at 4° C. and 200×g for 5 minutes. […] Imaging was performed using the ECL Prime chemiluminescent Western blot detection reagents (Kindle Biosciences, Cat. No. R1100) by visualization of the blots with an Imager (Kindle Biosciences, Cat. No. D1001). All Western blots were subsequently processed and quantified with Imager software ImageJ and protein level was normalized to the B-actin loading controls.

## O=C1CCC(N2C(=O)c3cccc(NCC(=O)N4CCN(c5ccc(Nc6nccc(Oc7ccccc7)n6)cc5)CC4)c3C2=O)C(=O)N1 (stereo not drawn) [PS-2, 2-(2,6-Dioxopiperidin-3-yl)-4-((2-oxo-2-(4-(4-((4-phenoxypyrimidin-2-yl)amino)phenyl)piperazin-1-yl)ethyl)amino)isoindoline-1,3-dione]
[1]
  half-life: ~20 min
[2]
  other proteins downregulated by at least 25% with statistical significance: No other proteins are downregulated
[3]
  CSK protein level change: downregulated
[4]
  degradation of IKZF1: ~50%
[5]
  BTK degradation (result in words): potently induces BTK degradation
[6]
  DC50: 28 nM
